Test results from patent US11065211B2, “Isoxylitones mediated neurogenesis” (priority 2018, dated 2021).

How the values were obtained:
Type in all cases: cell-based, rat
[1] = tested on: cortical cells and hippocampal cells; test: MTT assay, in vitro screening of compounds for cell proliferation activity; conditions: 24 hrs treatment
Excerpt: The Tetrazolium MTT [3-(4, 5-dimethyl thiazol-2-yl)-2,5-diphenyl tetrazolium bromide] Assay: MTT assay was used to screen various compounds for their proliferating effect on cortical cells and hippocampal cells. The principle of MTT test is based on the ability of live cells to form insoluble purple formazan product from the breakdown of the water soluble yellow tetrazolium salt by mitochondrial enzyme succinate dehydrogenase (Mosmann, 1983). The resulting intracellular purple formazan can quantify by spectrophotometric means. The MTT Cell Proliferation Assay measures the cell proliferation rate and conversely, when metabolic events lead to apoptosis or necrosis, the reduction in cell viability.
The density of the cortical and hippocampal cells was adjusted at the density 2×10^5 cells/mL in complete DMEM medium (5% FBS). The cells (5000/well) were then plated in 96-wells plate and incubated for 24 hrs at 37° C. with 5% CO2. Following 24 hrs incubation, media was removed and 100 μL of each test compounds in DMEM media (5% FBS) were added. […] The culture plates were re-incubated for 24 hrs at 37° C. in 5% CO2. Cells treated with 0.1% DMSO in complete media (5% FBS) were used as vehicle controls. […] The absorbance was read at 495 nm on spectrophotometer. […] The percent rate of proliferation was calculated using the following formula, % rate of proliferation={(At−Ab)/(Ac−Ab)}×100

Cocul-CTX cells = test: AlamarBlue proliferation assay; conditions: 24 h, FIG. 4
Experimental: (§1) Wistar rats (150-200 gm) were used to isolate bone marrow (BM). Rats were sacrificed and their femurs were removed aseptically. The bone marrow (BM) was flushed from the shaft of the bone by clipping of the epiphysial ends and flushing using a 26-gauge needle with ˜2 ml of Dulbecco's Modified Eagle's medium (DMEM) supplemented with 5% FBS, 1% penicillin/streptomycin solution, 1% sodium pyruvate and L-glutamine. The BM was then centrifuged for 8 minutes at 1000 rpm. Following centrifugation, cell pellet was collected and 1 ml of fresh DMEM was added. The cell viability was checked using trypan blue exclusion method. The cells were then divided into three equal parts. One part was co-cultured with freshly isolated hippocampal cells in T75 cm^2 flask, 2nd with freshly isolated cortical cells and the third portion (BM cells only) was cultured as a control. The cell density for co-cultures was set at 140,000 cells/ml for each type of culture. The cultured flasks were then incubated at 37° C. and 5% CO2. After 4-5 days, floating hematopoietic cells and dead debris/tissues of hippocampus and cortex were removed and bone marrow stromal cells (BMSCs) were recovered due to their tendency to adhere. Medium was replaced after every 3 to 4 days till cells became 80-90% confluent.
(§2) AlamarBlue (AB), a water-soluble dye having resazurin salt was used to evaluate the effect of isoxylitones on the proliferation of the cultured cells. AB measures mitochondrial reductase activity of live cells. The resazurin has ability to enter the cytosol of viable cell and converted to the reduced fluorescent form resorufin by mitochondrial enzyme activity by accepting electrons from NADPH, FADH, FMNH, NADH as well as from the cytochromes. […] The amount of fluorescence produced is proportional to the number of living cells (Al-Nasiry, Geusens, Hanssens, Luyten, Pijnenborg, 2007). […] After incubation, the fluorescence intensity in each well was recorded at an excitation wavelength of 570 nm and an emission wavelength of 600 nm. The rate of cell proliferation was expressed as the relative fluorescence intensity. […] The blank media fluorescence measurement was subtracted from fluorescence measurements of cells from the same run.
(§3) Formula used to calculate the percentage reduction of AB using absorbance readings:
(§4) [formula] Where: O1=molar extinction coefficient (E) of oxidized alamarBlue® (Blue) at 570 nm O2=E of oxidized alamarBlue® at 600 nm A1=absorbance of test wells at 570 nm A2=absorbance of test wells at 600 nm P1=absorbance of positive growth control well (cells plus alamarBlue® but no test agent) at 570 nm P2=absorbance of positive growth control well (cells plus alamarBlue® but no test agent at 600 nm

Cocul-HP cells = test: AlamarBlue proliferation assay; conditions: 24 h, FIG. 4
Experimental: as §1, §2, §3, §4

With `CC(=O)C=C1C=C(C)CC(C)(C)C1` (mixture of isomers) [isoxylitones] the “activity on the cell proliferation (MTT screening)” value [1] was “significant potent activity”, the highest proliferative dose (Cocul-CTX cells) was 150 µg/mL and the “growth proliferation (Alamar blue)” value (Cocul-CTX cells; various doses) was “dose dependent growth proliferative effect”. The highest proliferative dose (Cocul-HP cells) was 150 µg/mL and the “growth proliferation (Alamar blue)” value (Cocul-HP cells; various doses) was “dose dependent growth proliferative effect”.
